System: immunoglobulin light chain protein WIL-FL T46L
Assay: Differential scanning fluorimetry (thermal shift) assay
Type: binding
Details: temperature shift [Tm]compound-[Tm]vehicle, recombinant WIL-FL T46L

Row | Structure (SMILES) | DSF (Table A) | DSF (Table B)
1 | Cc1nc(C2C3(c4nc5c(C)cc(N6CC[C@](C)(c7ccccc7)C6)cn5n4)CC2(C(C)(C)O)CO3)n[nH]1 (mixture of isomers) [Compound 3, 2-[1-[8-methyl-6-[rac-(3R)-3-methyl-3-phenyl-pyrrolidin-1-yl]-[1,2,4]triazolo[1,5-a]pyridin-2-yl]-5-(5-methyl-1H-1,2,4-triazol-3-yl)-2-oxabicyclo[2.1.1]hexan-4-yl]propan-2-ol] | ***** (>2.5° C.=*****) | 
2 | Cc1cc(N2CC[C@](C)(c3ccccc3)C2)cn2nc(C(=O)N3CCC4(CCN(c5ccc(C#N)c(C(=O)O)n5)C4)C3)nc12 (mixture of isomers) [Compound 609, 3-cyano-6-[2-[8-methyl-6-[rac-(3R)-3-methyl-3-phenyl-pyrrolidin-1-yl]-[1,2,4]triazolo[1,5-a]pyridine-2-carbonyl]-2,7-diazaspiro[4.4]nonan-7-yl]pyridine-2-carboxylic acid] |  | ***** (>2.5° C.=*****)
3 | Cc1cc(N2CC[C@](C)(c3ccccc3)C2)cn2nc(C(=O)NC3CC[C@]4(CCN(c5cccc(C(=O)O)n5)C4)C3)nc12 (mixture of isomers) [Compound 633, 6-[rac-(5S)-8-[[8-methyl-6-[rac-(3R)-3-methyl-3-phenyl-pyrrolidin-1-yl]-[1,2,4]triazolo[1,5-a]pyridine-2-carbonyl]amino]-2-azaspiro[4.4]nonan-2-yl]pyridine-2-carboxylic acid] |  | ***** (>2.5° C.=*****)
4 | Cc1cc(N2CC[C@](C)(c3ccccc3)C2)cn2nc(C(=O)NC3CC[C@@]4(CCN(c5cccc(C(=O)O)n5)C4)C3)nc12 (mixture of isomers) [Compound 634, 6-[rac-(5R)-8-[[8-methyl-6-[rac-(3R)-3-methyl-3-phenyl-pyrrolidin-1-yl]-[1,2,4]triazolo[1,5-a]pyridine-2-carbonyl]amino]-2-azaspiro[4.4]nonan-2-yl]pyridine-2-carboxylic acid] |  | ***** (>2.5° C.=*****)
5 | Cc1cc(N2CC[C@](C)(c3ccccc3)C2)cn2nc(C(=O)NC34COC(CN(c5cccc(C(=O)O)n5)C3)C4)nc12 (mixture of isomers) [Compound 690, 6-[1-[[8-methyl-6-[rac-(3R)-3-methyl-3-phenyl-pyrrolidin-1-yl]-[1,2,4]triazolo[1,5-a]pyridine-2-carbonyl]amino]-6-oxa-3-azabicyclo[3.2.1]octan-3-yl]pyridine-2-carboxylic acid] |  | ***** (>2.5° C.=*****)
6 | Cc1nc(C2C3(C(=O)O)COC2(c2nc4c(C)cc(N5CC[C@](C)(c6ccccc6)C5)cn4n2)C3)n[nH]1 (stereo partly drawn) [Compound 1A, 5-(5-methyl-1H-1,2,4-triazol-3-yl)-1-(8-methyl-6-((R)-3-methyl-3-phenylpyrrolidin-1-yl)-[1,2,4]triazolo[1,5-a]pyridin-2-yl)-2-oxabicyclo[2.1.1]hexane-4-carboxylic acid] | ***** (>2.5° C.=*****) | 
7 | Cc1cc(N2CC[C@](C)(c3ccccc3)C2)cn2nc(C34CC(N)(CO3)C4CO)nc12 (stereo partly drawn) [Compound 4, (4-amino-1-(8-methyl-6-((R)-3-methyl-3-phenylpyrrolidin-1-yl)-[1,2,4]triazolo[1,5-a]pyridin-2-yl)-2-oxabicyclo[2.1.1]hexan-5-yl)methanol] | ***** (>2.5° C.=*****) | 
8 | Cc1cc(N2CC[C@](C)(c3ccccc3)C2)cn2nc(C34CC(N)(CO3)C4)nc12 [Compound 5, 1-[8-methyl-6-[(3R)-3-methyl-3-phenyl-pyrrolidin-1-yl]-[1,2,4]triazolo[1,5-a]pyridine-2-yl]-2-oxabicyclo[2.1.1]hexan-4-amine] | ***** (>2.5° C.=*****) | 
9 | Cc1cc(N2CC[C@](C)(c3ccccc3)C2)cn2nc(C34CC(CO3)C4c3nc(C(N)=O)n[nH]3)nc12 (stereo partly drawn) [Compound 6, 5-[1-[8-methyl-6-[(3R)-3-methyl-3-phenyl-pyrrolidin-1-yl]-[1,2,4]triazolo[1,5-a]pyridine-2-yl]-2-oxabicyclo[2.1.1]hexan-5-yl]-1H-1,2,4-triazole-3-carboxamide] | ***** (>2.5° C.=*****) | 
10 | Cc1cc(N2CC[C@](C)(c3ccccc3)C2)cn2nc(C34CC(CO3)C4CNc3cccc(C(=O)O)n3)nc12 (stereo partly drawn) [Compound 8, 6-[[1-[8-methyl-6-[(3R)-3-methyl-3-phenyl-pyrrolidin-1-yl]-[1,2,4]triazolo[1,5-a]pyridin-2-yl]-2-oxabicyclo[2.1.1]hexan-5-yl]methylamino]pyridine-2-carboxylic acid] | ***** (>2.5° C.=*****) | 
11 | Cc1nc(CC2C3COC2(c2nc4c(C)cc(N5CC[C@](C)(c6ccccc6)C5)cn4n2)C3)n[nH]1 (stereo partly drawn) [Compound 9, 8-methyl-6-[(3R)-3-methyl-3-phenyl-pyrrolidin-1-yl]-2-[5-[(5-methyl-1H-1,2,4-triazol-3-yl)methyl]-2-oxabicyclo[2.1.1]hexan-1-yl]-[1,2,4]triazolo[1,5-a]pyridine] | ***** (>2.5° C.=*****) | 
12 | CC(=O)Nc1n[nH]c(C2C3COC2(c2nc4c(C)cc(N5CC[C@](C)(c6ccccc6)C5)cn4n2)C3)n1 (stereo partly drawn) [Compound 10, N-[5-[1-[8-methyl-6-[(3R)-3-methyl-3-phenyl-pyrrolidin-1-yl]-[1,2,4]triazolo[1,5-a]pyridine-2-yl]-2-oxabicyclo[2.1.1]hexan-5-yl]-1H-1,2,4-triazol-3-yl]acetamide] | ***** (>2.5° C.=*****) | 
13 | Cc1cc(N2CC[C@](C)(c3ccccc3)C2)cn2nc(C34CC(CO3)C4c3cn(C)nn3)nc12 (stereo partly drawn) [Compound 11, 8-methyl-6-[(3R)-3-methyl-3-phenyl-pyrrolidin-1-yl]-2-[5-(1-methyltriazol-4-yl)-2-oxabicyclo[2.1.1]hexan-1-yl]-[1,2,4]triazolo[1,5-a]pyridine] | ***** (>2.5° C.=*****) | 
14 | Cc1cc(N2CC[C@](C)(c3ccccc3)C2)cn2nc(C3OC4(CO)CC3(C(N)=O)C4)nc12 (some centres unmarked) [Compound 12] | ***** (>2.5° C.=*****) | 
15 | Cc1cc(N2CC[C@](C)(c3ccccc3)C2)cn2nc(C34CC(CO3)C4c3noc(=O)[nH]3)nc12 (stereo partly drawn) [Compound 13, 3-[1-[8-methyl-6-[(3R)-3-methyl-3-phenyl-pyrrolidin-1-yl]-[1,2,4]triazolo[1,5-a]pyridin-2-yl]-2-oxabicyclo[2.1.1]hexan-5-yl]-4H-1,2,4-oxadiazol-5-one] | ***** (>2.5° C.=*****) | 
16 | CNC(=O)c1nc2c(C)cc(N3CCC(C)(c4ncco4)C3)cn2n1 (centres unmarked) [Compound 14, N,8-dimethyl-6-(3-methyl-3-(oxazol-2-yl)pyrrolidin-1-yl)-[1,2,4]triazolo[1,5-a]pyridine-2-carboxamide] | ** (>0.5-1 °C =**) | 
17 | CNC(=O)c1nc2c(C)cc(N3CCC(C)(c4nccs4)C3)cn2n1 (centres unmarked) [Compound 15, N,8-dimethyl-6-(3-methyl-3-(thiazol-2-yl)pyrrolidin-1-yl)-[1,2,4]triazolo[1,5-a]pyridine-2-carboxamide] | ***** (>2.5° C.=*****) | 
18 | CNC(=O)c1nc2c(C)cc(OC3CCC3(C)c3ccccc3)cn2n1 (centres unmarked) [Compound 16, N,8-dimethyl-6-(2-methyl-2-phenylcyclobutoxy)-[1,2,4]triazolo[1,5-a]pyridine-2-carboxamide] | * (0-0.5° C.=*) | 
19 | Cc1cccc(C2CCC23CN(c2cc(C)c4nc(C(=O)N5CC[C@@]6(CCN(c7cccc(C(=O)O)n7)C6)C5)nn4c2)C3)c1 (stereo partly drawn) [Compound 17, 6-((5R)-7-(8-methyl-6-(5-(m-tolyl)-2-azaspiro[3.3]heptan-2-yl)-[1,2,4]triazolo[1,5-a]pyridine-2-carbonyl)-2,7-diazaspiro[4.4]nonan-2-yl)picolinic acid] | ***** (>2.5° C.=*****) | 
20 | Cc1cc(N2CC[C@](C)(c3ccccc3)C2)cn2nc(C(=O)NC3CC4(COC4)C3)nc12 [Compound 18, (R)-8-methyl-6-(3-methyl-3-phenylpyrrolidin-1-yl)-N-(2-oxaspiro[3.3]heptan-6-yl)-[1,2,4]triazolo[1,5-a]pyridine-2-carboxamide] | ***** (>2.5° C.=*****) | 
21 | Cc1cc(N2CC[C@](C)(c3ccccc3)C2)cn2nc(C(=O)NC3CCN(c4cccc(C(=O)O)n4)C3)nc12 (stereo partly drawn) [Compound 19, 6-(3-(8-methyl-6-((R)-3-methyl-3-phenylpyrrolidin-1-yl)-[1,2,4]triazolo[1,5-a]pyridine-2-carboxamido)pyrrolidin-1-yl)picolinic acid] | ***** (>2.5° C.=*****) | 
22 | Cc1cc(N2CC[C@](C)(c3ccccc3)C2)cn2nc(C(=O)NC3CCN(c4cccc(C(=O)O)n4)CC34COC4)nc12 (stereo partly drawn) [Compound 20, 6-(9-(8-methyl-6-((R)-3-methyl-3-phenylpyrrolidin-1-yl)-[1,2,4]triazolo[1,5-a]pyridine-2-carboxamido)-2-oxa-6-azaspiro[3.5]nonan-6-yl)picolinic acid] | ***** (>2.5° C.=*****) | 
23 | Cc1cc(N2CC[C@](C)(c3ncco3)C2)cn2nc(C(=O)N3CC[C@@]4(CCN(c5cccc(C(=O)O)n5)C4)C3)nc12 [Compound 21, 6-((R)-7-(8-methyl-6-((S)-3-methyl-3-(oxazol-2-yl)pyrrolidin-1-yl)-[1,2,4]triazolo[1,5-a]pyridine-2-carbonyl)-2,7-diazaspiro[4.4]nonan-2-yl)picolinic acid] | *** (>1-1.5° C.=***) | 
24 | C[C@]1(c2ccccc2)CCN(c2cc(N)c3cc(C(=O)N4CC[C@@]5(CCN(c6cccc(C(=O)O)n6)C5)C4)nn3c2)C1 [Compound 22, 6-((R)-7-(4-amino-6-((R)-3-methyl-3-phenylpyrrolidin-1-yl)pyrazolo[1,5-a]pyridine-2-carbonyl)-2,7-diazaspiro[4.4]nonan-2-yl)picolinic acid] | **** (>1.5-2.5° C.=****) | 
25 | Cc1cc(N2CCC(C)(C3CC4(CC4)C3)C2)cn2nc(C(=O)N3C[C@@H]4CN(c5cccc(C(=O)O)n5)C[C@@H]4C3)nc12 (stereo partly drawn) [Compound 23, 6-((3aR,6aS)-5-(8-methyl-6-(3-methyl-3-(spiro[2.3]hexan-5-yl)pyrrolidin-1-yl)-[1,2,4]triazolo[1,5-a]pyridine-2-carbonyl)hexahydropyrrolo[3,4-c]pyrrol-2(1H)-yl)picolinic acid] | **** (>1.5-2.5° C.=****) | 
26 | Cc1cc(N2CC3(CC[C@H]3c3ccccc3)C2)cn2nc(C(=O)N3CC[C@@]4(CCN(c5cccc(C(=O)O)n5)C4)C3)nc12 [Compound 24A, Lithium 6-((R)-7-(8-methyl-6-((S)-5-phenyl-2-azaspiro[3.3]heptan-2-yl)-[1,2,4]triazolo[1,5-a]pyridine-2-carbonyl)-2,7-diazaspiro[4.4]nonan-2-yl)picolinate] | ***** (>2.5° C.=*****) | 
